Data taken from ChEMBL document CHEMBL1201862, “PubChem BioAssay data set” (2004).
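All cell lines were grown in 96-well plates and treated with compound for 48 hours. The concentration for 50% growth inhibition is given as GI50.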 The source made the active and inactive calls. No stated cut-off is given here; in the data, active = GI50 up to about 1.1 µM and inactive = higher.

Key:
Experiment in all cases: NCI tumour cell line growth inhibition, 48 h
[1] = system: A549
[2] = system: ACHN
[3] = system: DU-145
[4] = system: EKVX
[5] = system: HCC 2998
[6] = system: HCT-15
[7] = system: HT-29
[8] = system: IGROV-1
[9] = system: LXFL 529
[10] = system: MOLT-4
[11] = system: OVCAR-5
[12] = system: PC-3
[13] = system: RPMI-8226
[14] = system: RXF 393
[15] = system: SF-268
[16] = system: SK-MEL-2
[17] = system: SN12C
[18] = system: SNB-75
[19] = system: SR
[20] = system: HL-60

| Structure (SMILES) | GI50 [1] | GI50 [2] | GI50 [3] | GI50 [4] | GI50 [5] | GI50 [6] [µM] | GI50 [7] | GI50 [8] | GI50 [9] | GI50 [10] | GI50 [11] | GI50 [12] | GI50 [13] | GI50 [14] | GI50 [15] | GI50 [16] | GI50 [17] | GI50 [18] | GI50 [19] | GI50 [20] |
| --- | --- | --- | --- | --- | --- | --- | --- | --- | --- | --- | --- | --- | --- | --- | --- | --- | --- | --- | --- | --- |
| COc1cccc2c1C(=N)c1c(O)c3c(c(O)c1C2=O)C[C@@](O)(C(C)=O)C[C@@H]3OC1CC(N)C(O)C(C)O1 (stereo not given in full) | 0.00832 µM (active) | 0.244 µM (active) | 0.00386 µM (active) | 1.42 µM (inactive) | 0.409 µM (active) | 3.27 | 0.4 µM (active) | 1.38 µM (inactive) | 0.542 µM (active) | 0.000132 µM (active) | 0.000445 µM (active) | < 0.01 µM (active) | 0.000159 µM (active) | 1.23 µM (inactive) | 0.00938 µM (active) | 1.48 µM (inactive) | 0.00771 µM (active) | 0.00764 µM (active) | 0.00466 µM (active) | – |
| O=C1C(Cl)C(c2cccc(O)c2)N1n1cnc2ccccc2c1=O (stereo not given) | > 100 µM (inactive) | > 100 µM (inactive) | – | 64.3 µM (inactive) | > 100 µM (inactive) | > 100 | > 100 µM (inactive) | 60.5 µM (inactive) | > 100 µM (inactive) | 57.5 µM (inactive) | > 100 µM (inactive) | – | 40.7 µM (inactive) | > 100 µM (inactive) | > 100 µM (inactive) | > 100 µM (inactive) | > 100 µM (inactive) | 27.9 µM (inactive) | 26 µM (inactive) | 64.7 µM (inactive) |
| Oc1cc(CN2CCOCCOCCOCCOCC2)c(O)cc1CN1CCOCCOCCOCCOCC1 | > 100 µM (inactive) | 23.9 µM (inactive) | – | > 100 µM (inactive) | > 100 µM (inactive) | 34.9 | > 47.2 µM (inactive) | > 78 µM (inactive) | 21.1 µM (inactive) | 24.3 µM (inactive) | 22.8 µM (inactive) | – | 26.2 µM (inactive) | 23.8 µM (inactive) | > 56.5 µM (inactive) | > 50.7 µM (inactive) | > 10 µM (inactive) | > 78.7 µM (inactive) | 20.3 µM (inactive) | 23.8 µM (inactive) |
| Nc1nc(O)c2[nH]nnc2n1 [8-AZAGUANINE] | 33 µM (inactive) | 16.3 µM (inactive) | 0.684 µM (active) | 11.4 µM (inactive) | 19.2 µM (inactive) | 24 | 26.1 µM (inactive) | 63.8 µM (inactive) | 16.3 µM (inactive) | 0.272 µM (active) | 21.9 µM (inactive) | 0.855 µM (active) | 0.234 µM (active) | 0.143 µM (active) | 0.406 µM (active) | 0.074 µM (active) | 0.334 µM (active) | 1.54 µM (inactive) | 2.42 µM (inactive) | 0.326 µM (active) |
